Experimental data as given in US11129807B2, “Methods of treating schizophrenia” (Sunovion Pharmaceuticals Inc., priority 2017, dated 2021).

Experiments:
[1] = system: PCP-Induced Hyperactivity Responses in Mice; assay: PCP-induced hyperactivity (open field) in mice;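 note: plus means significant inhibition of PCP hyperactivity at P below 0.05 and minus means none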; format: in vivo; conditions: male C57Bl/6J mice, vs. vehicle + PCP
Description: (§1) Anti-psychotic like activity of the compounds was evaluated in mice using the PCP hyperactivity and Pre-Pulse Inhibition (PPI) models of schizophrenia.
(§2) Methods: Animals: Male C57Bl/6J mice from Jackson Laboratories (Bar Harbor, Me.) were used. Upon receipt, mice were assigned unique identification numbers (tail marked) and were group housed with 4 mice per cage in OptiMICE ventilated cages. All animals remained housed in groups of four during the remainder of the study. All mice were acclimated to the colony room for at least two weeks prior to testing. During the period of acclimation, mice were examined on a regular basis, handled, and weighed to assure adequate health and suitability. Animals were maintained on a 12/12 light/dark cycle. The room temperature was maintained between 20 and 23° C. with a relative humidity maintained between 30% and 70%. Chow and water were provided ad libitum for the duration of the study. In each test, animals were randomly assigned across treatment groups.
The analysis was configured to divide the open field into a center and periphery zone. Distance traveled was measured from horizontal beam breaks as the mouse moved whereas rearing activity was measured from vertical beam breaks.
Mice were injected with vehicle, test compound, or clozapine (1 mg/kg; i.p) and placed in the OF chambers for 30 min measurement of baseline activity. Mice were then injected with either water or PCP (5 mg/kg; i.p) and placed back in the OF chambers for a 60-minute session. At the end of each OF test session the OF chambers were thoroughly cleaned.

[2] = system: Pre-pulse Inhibition (PPI) in Mice; assay: Pre-pulse inhibition (PPI) of startle in mice;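 note: plus grades count prepulse intensities with significant PPI increase at P below 0.05 and minus means no change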; format: in vivo; conditions: 30 min prior to PPI test, male C57Bl/6J mice, vs. vehicle
Description: as §1, §2
Prepulse Inhibition of Startle: The acoustic startle is an unconditioned reflex response to an external auditory stimulus. Prepulse inhibition of startle (PPI) refers to the reduction in the startle response caused by the presentation of a low-intensity auditory stimulus prior to the startle stimulus. The PPI paradigm is used for the study of schizophrenia and antipsychotic action due to the similarities between the results from human and rodent studies. […] Various psychotomimetic drugs such as PCP can disrupt PPI. In mice, antipsychotic drugs such as clozapine can reverse the disruption of PPI induced by PCP.
Mice were placed in the PPI chambers (Med Associates) for a 5 min session of white noise (70 dB) habituation. After the habituation period the test session was initiated. The session started with a habituation block of 6 presentations of the startle stimulus alone, followed by 10 PPI blocks, each of which consisted of 6 different types of trials. Trial types were: ‘null’ (no stimuli), ‘startle’ (120 dB), ‘startle plus prepulse’ (4, 8 and 12 dB over background noise, i.e., 74, 78 or 82 dB) and ‘prepulse’ (82 dB). Trial types were presented in a random order within each block. Each trial started with a 50 ms stimulus-free period during which baseline movements were recorded. This was followed by a subsequent 20 ms period during which the prepulse stimulus was presented and responses to the prepulse measured. After a further 100 ms period, the startle stimulus was presented for 40 ms and responses recorded for 100 ms from startle onset. Responses were sampled every ms. The inter-trial interval was variable with an average of 15 s (range from 10 to 20 s). In ‘startle’ trials the basic auditory startle response was measured. The basic startle response was calculated as the mean startle response of all ‘startle’ trials (i.e., excluding the first habituation block). In ‘startle plus prepulse’ trials the degree of inhibition of the normal startle was calculated and expressed as a percentage of the basic startle response.
Mice were treated with vehicle, haloperidol (1 mg/kg; i.p) or test compound 30 min prior to PPI test. The PPI enclosures were cleaned following each test.

[3] = 0.3 mg/kg Compound + PCP (5 mg/kg; i.p)
[4] = 1 mg/kg Compound + PCP (5 mg/kg; i.p)
[5] = 3 mg/kg Compound + PCP (5 mg/kg; i.p)
[6] = 10 mg/kg Compound + PCP (5 mg/kg; i.p)
[7] = 30 mg/kg Compound + PCP (5 mg/kg; i.p)
[8] = 100 mg/kg Compound + PCP (5 mg/kg; i.p)

Row | Structure (SMILES) | Total Distance Traveled (cm) [1, 3] | Total Distance Traveled (cm) [1, 4] | Total Distance Traveled (cm) [1, 5] | Effect on Pre-pulse Inhibition (PPI) ([2]; 3 mg/kg) | Effect on Pre-pulse Inhibition (PPI) ([2]; 10 mg/kg) | Effect on Pre-pulse Inhibition (PPI) ([2]; 30 mg/kg) | Total Distance Traveled (cm) [1, 6] | Total Distance Traveled (cm) [1, 7] | Total Distance Traveled (cm) [1, 8] | Effect on Pre-pulse Inhibition (PPI) ([2]; 100 mg/kg)
1 | CNC[C@H]1OCCc2scc(C)c21 [Compound 131] | − | + | + | − | − | − |  |  |  | 
2 | CNC[C@@H]1OCCc2scc(C)c21 [Compound 130] | − | − | + | − | − | − | + | + | + | 
3 | CNC[C@@H]1OCCc2sc(C)cc21 [Compound 57] |  |  |  |  | − | − | + | + | + | ++
4 | CCNC[C@H]1OCCc2sccc21 [Compound 311] | − | + | + | − | − | +++ | + | + |  | 
5 | CNCC1OCCc2scc(C)c21 (centres unmarked) [Compound 78] |  |  |  |  | − | − | + | + | + | −
6 | c1cc2c(s1)CCO[C@H]2[C@H]1CCCN1 [Compound 102] | − | + | + | − | − | − | + | + |  | 
7 | CNCC1OCCc2sc(C)cc21 (centres unmarked) [Compound 5] |  |  |  |  | − | +++ | + | + | + | +++
8 | c1cc2c(s1)CCO[C@@H]2[C@@H]1CCCN1 [Compound 119] |  |  |  |  |  |  | + | + | + | 
9 | CNC[C@@H]1OCCc2sccc21 [Compound 27] | − | − | − |  | − | − | + | + | + | −
10 | CCc1cc2c(s1)CCOC2CNC (centres unmarked) [Compound 10] |  |  |  |  | +++ | +++ | + | + | + | +++
11 | NC[C@@H]1OCCc2sccc21 [Compound 2] |  |  |  |  | − | − | + | + | − | +++
12 | Cc1csc2c1CCO[C@@H]2CN [Compound 170] | − | − | − | − | +++ | +++ | − | − |  | 
13 | CCc1cc2c(s1)CCO[C@H]2CNC [Compound 75] |  |  |  |  | − | − | + | − | + | −
14 | CCNCC1OCCc2sccc21 (centres unmarked) [Compound 13] |  |  |  |  | − | − |  |  |  | +++
15 | CNC[C@H]1OCCc2c(C)csc21 [Compound 172] | − | + | + | − | − | − | − | − |  | −
16 | CNC[C@H]1OCCc2sccc21 [Compound 28] | + | + | + |  | − | +++ | + | + | + | +++
17 | CCNC[C@H]1OCCc2ccsc21 [Compound 242] | − | + | + | − | − | − | + | + |  | 
18 | CCc1cc2c(s1)CCO[C@@H]2CNC [Compound 76] |  |  |  |  | − | − | − | − | + | −
